Results: publication PMC9684580, “The BDSF quorum sensing receptor RpfR regulates Bep exopolysaccharide synthesis in Burkholderia cenocepacia via interaction with the transcriptional regulator BerB” (NPJ Biofilms and Microbiomes, 2022)

Assays:
RpfR [1] = target: T1, RpfR (Burkholderia cenocepacia, UniProt B4EKM4); test: PDE assay, products by anion-exchange FPLC (ResourceQ); assay type: biochemical; settings: 2 uM enzyme, 100 uM substrate, 50 mM Tris-Cl pH 7.8, 500 mM NaCl, 2 mM MgCl2, 37 °C, 180 min; product pGpG
T1 construct: gene BCAM0580; full-length rpfR in pQE-32 (BamHI/HindIII; vector with N-terminal His tag), expressed in E. coli M15[pREP4], purified
T1 sequence (B4EKM4 entry or part of it): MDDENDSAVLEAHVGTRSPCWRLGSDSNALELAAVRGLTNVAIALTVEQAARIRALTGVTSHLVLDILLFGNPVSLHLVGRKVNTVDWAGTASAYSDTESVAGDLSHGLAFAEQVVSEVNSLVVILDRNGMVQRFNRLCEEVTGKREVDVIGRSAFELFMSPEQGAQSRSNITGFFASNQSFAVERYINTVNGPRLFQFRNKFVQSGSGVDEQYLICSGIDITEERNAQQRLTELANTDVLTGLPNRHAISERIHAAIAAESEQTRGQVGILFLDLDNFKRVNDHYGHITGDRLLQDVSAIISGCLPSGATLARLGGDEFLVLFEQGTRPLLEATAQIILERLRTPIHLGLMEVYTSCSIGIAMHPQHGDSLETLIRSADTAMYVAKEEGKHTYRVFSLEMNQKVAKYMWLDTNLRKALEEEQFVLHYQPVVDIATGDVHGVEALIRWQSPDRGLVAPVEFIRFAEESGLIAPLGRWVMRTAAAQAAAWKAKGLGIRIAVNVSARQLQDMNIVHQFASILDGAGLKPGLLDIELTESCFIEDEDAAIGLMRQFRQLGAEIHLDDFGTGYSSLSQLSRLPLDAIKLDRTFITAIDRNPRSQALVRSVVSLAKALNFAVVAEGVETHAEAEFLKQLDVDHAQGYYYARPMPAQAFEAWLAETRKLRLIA

RpfR [2] = target: T1, RpfR; test: DGC assay, products by anion-exchange FPLC (ResourceQ); assay type: biochemical; settings: 2 uM enzyme, 100 uM substrate, 50 mM Tris-Cl pH 7.8, 500 mM NaCl, 2 mM MgCl2, 37 °C, 180 min; product pGpG

Row | Compound | PDE assay, products by anion-exchange FPLC (ResourceQ) (RpfR [1]) | DGC assay, products by anion-exchange FPLC (ResourceQ) (RpfR [2])
1 | Nc1nc2c(ncn2[C@@H]2O[C@@H]3COP(=O)(O)O[C@H]4[C@@H](O)[C@H](n5cnc6c(=O)[nH]c(N)nc65)O[C@@H]4COP(=O)(O)O[C@H]3[C@H]2O)c(=O)[nH]1 [c-di-GMP] | Wild-type RpfR metabolized GTP as well as c-di-GMP, generating pGpG from both substrates | 
2 | Nc1nc2c(ncn2[C@@H]2O[C@H](COP(=O)(O)OP(=O)(O)OP(=O)(O)O)[C@@H](O)[C@H]2O)c(=O)[nH]1 [GTP] |  | Wild-type RpfR metabolized GTP as well as c-di-GMP, generating pGpG from both substrates
